According to PubChem BioAssay (NCI):
Values joined by “and” are separate entries in the source; they are usually repeats but may differ in a detail not shown here. Equal values may be shown once.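 Exposure lasted 48 hours, with cells grown in 96-well plates and compounds tested at five concentrations. Here, GI50 denotes the concentration required for 50% inhibition of growth. TGI denotes the concentration required for complete inhibition of growth.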

How the values were obtained:
Assay in all cases: DTP human tumour cell line panel, 48 h
[1] = test system: ACHN renal
[2] = test system: HCT-116 colon
[3] = test system: KM12 colon
[4] = test system: MALME-3M melanoma
[5] = test system: OVCAR-8 ovarian
[6] = test system: RPMI-8226 leukemia
[7] = test system: SK-MEL-5 melanoma
[8] = test system: SNB-75 CNS
[9] = test system: T-47D breast
[10] = test system: HL-60(TB) leukemia
[11] = test system: MOLT-4 leukemia
[12] = test system: NCI-H460 lung
[13] = test system: SW-620 colon
[14] = test system: BT-549 breast

| SMILES | TGI [1] | TGI [2] | TGI [3] | TGI [4] | TGI [5] | TGI [6] | TGI [7] | TGI [8] | TGI [9] | TGI [10] | TGI [11] | TGI [12] | TGI [13] | TGI [14] | GI50 [3] | GI50 [4] | GI50 [12] | GI50 [5] | GI50 [8] | GI50 [9] |
| --- | --- | --- | --- | --- | --- | --- | --- | --- | --- | --- | --- | --- | --- | --- | --- | --- | --- | --- | --- | --- |
| O=C1CCCc2ccc3c(c21)CC1(Cc2ccccc2C1)C3 | 68.9 µM | 55.7 µM | > 100 µM | > 100 µM | > 100 µM | 48.1 µM | 33.4 µM | 9.64 µM | > 100 µM | – | – | – | – | – | – | – | – | – | – | – |
| CC(O)[C@@]1(c2ccccc2)CC2(CCN(C)CC2)O[C@H]1C (stereo partly drawn) | > 100 µM | – | > 100 µM | > 100 µM | > 100 µM | > 100 µM | > 100 µM | > 100 µM | 98 µM | 95 µM | > 100 µM | > 100 µM | > 100 µM | – | – | – | – | – | – | – |
| CSCCC(C(=O)O)N(CC1(O)OCC(O)C(O)C1O)N=O (stereo not drawn) | > 100 µM | > 100 µM | > 100 µM | > 100 µM | > 100 µM | > 100 µM | > 100 µM | > 100 µM | – | > 100 µM | > 100 µM | > 100 µM | > 100 µM | – | – | – | – | – | – | – |
| CCOC(=O)CNc1nnnn1C1OC(CO)C(O)C1O (stereo not drawn) | > 100 µM | > 100 µM | > 100 µM | > 100 µM | > 100 µM | > 100 µM | > 100 µM | > 100 µM | – | – | > 100 µM | > 100 µM | > 100 µM | – | – | – | – | – | – | – |
| COc1ccc(C(=O)/C=C/c2ccc(OCC(=N)N)cc2)cc1 | 31.9 µM | 16.7 µM | 25.8 µM | 32 µM | 37.3 µM | – | 33.1 µM | 20.3 µM | 26.5 µM | – | 30.9 µM | – | 14.7 µM | 31.7 µM | – | – | – | – | – | – |
| CC(C)[C@@H](C)[C@@]1(C)C[C@@H]1[C@@H](C)[C@H]1CC[C@@H]([C@@H]2CC=C3C[C@@H](O)CC[C@]3(C)C2=O)[C@]1(C)CCO | 25 µM | 21.6 µM | 13 µM | 27.4 µM | 25.5 µM | 52 µM | 26.4 µM | 17.9 µM | – | 5.2 µM | 19.3 µM | 3.32 µM | 20.1 µM | 30.3 µM | – | – | – | – | – | – |
| COc1ccc(/C(=N\Nc2ccccn2)c2ccccn2)cc1 | 2.81 µM | 17.4 µM | > 32.3 µM | – | 11.8 µM | 3.85 µM | 11.7 µM | 8.01 µM | – | 18.4 µM | > 58.3 µM | 3.08 µM | 30.4 µM | > 100 µM | – | – | – | – | – | – |
| Cn1c(N=P(c2ccccc2)(c2ccccc2)c2ccccc2)c([N+](=O)[O-])c(=O)n(C)c1=O | > 100 µM | > 100 µM | 80.4 µM | > 100 µM | 75.3 µM | > 100 µM | > 100 µM | 91.8 µM | > 100 µM | – | 66.8 µM | > 100 µM | > 100 µM | > 100 µM | – | – | – | – | – | – |
| CCCN(CCC)C1=Nc2ccccc2-n2cnnc2C1 | > 100 µM | > 100 µM | > 100 µM | > 100 µM | > 100 µM | > 100 µM | > 100 µM | – | – | > 100 µM | > 100 µM | > 100 µM | > 100 µM | – | – | – | – | – | – | – |
| CCOC(=O)c1cc(C2CCN(Cc3ccccc3)C2=S)c(C(=O)C=[N+]=[N-])[nH]1 (stereo not drawn) | > 100 µM | > 100 µM | > 100 µM | 66.3 µM | > 100 µM | > 100 µM | 34.5 µM | 91.6 µM | – | – | > 100 µM | 64.1 µM | > 100 µM | 67.6 µM | – | – | – | – | – | – |
| N#Cc1c(N2CCN(c3ccc([N+](=O)[O-])cc3)CC2)[n+](=O)c2ccccc2n1[O-] | > 100 µM | > 100 µM | > 100 µM | > 100 µM | > 100 µM | > 100 µM | > 100 µM | > 100 µM | > 100 µM | – | > 100 µM | > 100 µM | > 100 µM | > 100 µM | – | – | – | – | – | – |
| COc1cc2c[n+](C)c3c4cc(OC)c(OC)cc4ccc3c2cc1OC | > 100 µM | > 100 µM | > 100 µM | > 100 µM | > 100 µM | > 100 µM | > 100 µM | > 100 µM and 98.9 µM | > 100 µM | – | > 100 µM | > 100 µM | > 100 µM | > 100 µM | > 100 µM and 33.3 µM | > 100 µM and 21.7 µM | > 100 µM and 49.8 µM | 32.9 µM and 15 µM | > 100 µM and 31.6 µM | > 100 µM and 10.1 µM |
| CCCCCCCCC/C=C1/CC(CO)(COC(=O)c2ccccc2)OC1=O (stereo not drawn) | 24.9 µM | 56.2 µM | 30.6 µM | 20.8 µM | – | – | 19.2 µM | 22.1 µM | 25.1 µM | – | 29.9 µM | 22 µM | 27.4 µM | 27.1 µM | – | – | – | – | – | – |
| CCOC(=O)C1(Br)S(=O)(=O)OCCOS1(=O)=O | > 100 µM | > 100 µM | – | > 100 µM | > 100 µM | > 100 µM | > 100 µM | > 100 µM | – | > 100 µM | > 100 µM | > 100 µM | > 100 µM | – | – | – | – | – | – | – |
| COC(=O)C1=C(CCC[C@H](C)O[Si](C)(C)C(C)(C)C)NC(=O)N2[C@@H](CCO)CC[C@H]12 | 30.3 µM | 20 µM | 51.2 µM | 25.9 µM | 29.5 µM | 53.6 µM | 21 µM | 30.5 µM | 32.9 µM | – | > 100 µM | 47.4 µM | 42.5 µM | 28.4 µM | – | – | – | – | – | – |
| NC(Cc1ccc(B(O)O)cc1)C(=O)NC(CO)CO (stereo not drawn) | > 100 µM | > 100 µM | > 100 µM | > 100 µM | > 100 µM | > 100 µM | > 100 µM | > 100 µM | – | – | > 100 µM | > 100 µM | > 100 µM | > 100 µM | – | – | – | – | – | – |
| Cc1csc(NNC(=O)Nc2ccccc2)n1 | > 100 µM | > 100 µM | > 100 µM | > 100 µM | > 100 µM | > 100 µM | > 100 µM | > 100 µM | > 100 µM | > 100 µM | – | > 100 µM | > 100 µM | – | – | – | – | – | – | – |
| COc1ccc(-c2cc(=O)c3c(O)cc(O)cc3o2)c(OC)c1OC | – | – | > 100 µM | > 100 µM | – | > 100 µM | – | > 100 µM | – | > 100 µM | – | – | > 100 µM | – | – | – | – | – | – | – |
